The values below come from patent US20240083861A1, “HSD17B13 INHIBITORS AND USES THEREOF” (FL2022-001, Inc., priority 2020, published 2024).

Each structure is given as a SMILES string.

For the first assay, the target named is T1, Recombinant human HSD17B13 enzyme (Homo sapiens, UniProt Q7Z5P4).
T1 sequence (Q7Z5P4 20-300): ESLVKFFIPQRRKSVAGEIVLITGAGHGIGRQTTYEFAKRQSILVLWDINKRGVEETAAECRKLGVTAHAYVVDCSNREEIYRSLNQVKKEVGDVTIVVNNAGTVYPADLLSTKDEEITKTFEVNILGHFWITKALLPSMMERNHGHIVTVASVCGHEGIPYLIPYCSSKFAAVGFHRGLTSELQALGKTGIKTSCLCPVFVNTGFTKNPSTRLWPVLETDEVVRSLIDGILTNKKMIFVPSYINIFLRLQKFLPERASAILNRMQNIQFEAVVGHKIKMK
In words: HSD17b13 NAD(P)H-Glo biochemical assay. The settings on record: 50 uM estradiol, 1 mM NAD+, NAD(P)H-Glo luminescence; read-out: HSD17β13 IC50. The essentials: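 Luminescent NAD(P)H-Glo read-out, taken after 1 hour at RT, measured cofactor reduction. Substrate and cofactor were estradiol at 50 uM and NAD+ at 1 mM final, reacted with the recombinant human enzyme for 3 hours at 37° C in 20 mM Tris pH7.4, 0.002% Tween-20, 0.02% BSA. Compound was pre-incubated with enzyme for 20 minutes at RT.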
Turning to `Cn1nc(-c2cc(C(F)(F)F)c(F)c(O)c2F)c2cnc(N3CCS(=O)(=O)CC3C3CC3)cc21` (stereo not drawn) [Compound 9.126, 3-Cyclopropyl-4-(3-(2,4-difluoro-3-hydroxy-5-(trifluoromethyl)phenyl)-1-methyl-1H-pyrazolo[4,3-c]pyridin-6-yl)thiomorpholine 1,1-dioxide], the IC50 (as a rule, the point on the concentration scale where inhibition reaches its midpoint) was less than 100 nM.
As to `CN(c1cc(Cl)c2c(-c3cc(C(F)(F)F)c(F)c(O)c3F)nn(C)c2c1)C1CCOCC1` [Compound 9.127, 3-(4-Chloro-1-methyl-6-(methyl(tetrahydro-2H-pyran-4-yl)amino)-1H-indazol-3-yl)-2,6-difluoro-5-(trifluoromethyl)phenol], the IC50 was in the range of 100 to 1000 nM.
`CN1CCN(c2cc3c(cn2)c(-c2cc(C(F)(F)F)c(F)c(O)c2F)nn3C)C(C2CCOCC2)C1` (stereo not drawn) [Compound 9.128, 2,6-Difluoro-3-(1-methyl-6-(4-methyl-2-(tetrahydro-2H-pyran-4-yl)piperazin-1-yl)-1H-pyrazolo[4,3-c]pyridin-3-yl)-5-(trifluoromethyl)phenol]: the half-inhibitory concentration (IC50) is less than 100 nM.
Same read-out and setting: the value for `Cn1nc(-c2cc(C(F)(F)F)c(F)c(O)c2F)c2cnc(N(C3CCOCC3)C3CC3)cc21` [Compound 9.129, 3-(6-(Cyclopropyl(tetrahydro-2H-pyran-4-yl)amino)-1-methyl-1H-pyrazolo[4,3-c]pyridin-3-yl)-2,6-difluoro-5-(trifluoromethyl)phenol] was less than 100 nM.
Take `Cc1c(N(C)C2CCOCC2)ncc2c(-c3cc(C(F)(F)F)c(F)c(O)c3F)nn(C)c12` [Compound 9.130, 3-(1,7-Dimethyl-6-(methyl(tetrahydro-2H-pyran-4-yl)amino)-1H-pyrazolo[4,3-c]pyridin-3-yl)-2,6-difluoro-5-(trifluoromethyl)phenol]: the IC50 was in the range of 100 to 1000 nM.
Still for that read-out and setting: the value for `Cn1nc(-c2cc(C(F)(F)F)c(F)c(O)c2F)c2cnc(N(Cc3cccnc3)C3CCOCC3)cc21` [Compound 9.131, 2,6-Difluoro-3-(1-methyl-6-((pyridin-3-ylmethyl)(tetrahydro-2H-pyran-4-yl)amino)-1H-pyrazolo[4,3-c]pyridin-3-yl)-5-(trifluoromethyl)phenol] was less than 100 nM; that for `Cn1nc(-c2cc(C(F)(F)F)c(F)c(O)c2F)c2cnc(N3CCOC4(CCCC4)C3)cc21` [Compound 9.132, 2,6-Difluoro-3-(1-methyl-6-(6-oxa-9-azaspiro[4.5]decan-9-yl)-1H-pyrazolo[4,3-c]pyridin-3-yl)-5-(trifluoromethyl)phenol] was less than 100 nM; that for `Cn1nc(-c2cc(C(F)(F)F)c(F)c(O)c2F)c2cnc(N3CCOC(C4CCOCC4)C3)cc21` (stereo not drawn) [Compound 9.133, 2,6-Difluoro-3-(1-methyl-6-(2-(tetrahydro-2H-pyran-4-yl)morpholino)-1H-pyrazolo[4,3-c]pyridin-3-yl)-5-(trifluoromethyl)phenol] was less than 100 nM.
As for `Cn1nc(-c2cc(C(F)(F)F)c(F)c(O)c2F)c2cnc(N3CCN(S(C)(=O)=O)C4(CCC4)C3)cc21` [Compound 9.134, 2,6-Difluoro-3-(1-methyl-6-(5-(methylsulfonyl)-5,8-diazaspiro[3.5]nonan-8-yl)-1H-pyrazolo[4,3-c]pyridin-3-yl)-5-(trifluoromethyl)phenol], the IC50 was less than 100 nM.
The same measure, in the same setting: the value for `Cn1nc(-c2cc(C(F)(F)F)c(F)c(O)c2F)c2cnc(N3CCO[C@@H](c4ccccc4)C3)cc21` [Compound 9.135, (S)-2,6-Difluoro-3-(1-methyl-6-(2-phenylmorpholino)-1H-pyrazolo[4,3-c]pyridin-3-yl)-5-(trifluoromethyl)phenol] was less than 100 nM; that for `CN(c1ncc2c(-c3cc(C(F)(F)F)c(F)c(O)c3F)nn(C)c2c1F)C1CCOCC1` [Compound 9.136, 2,6-Difluoro-3-(7-fluoro-1-methyl-6-(methyl(tetrahydro-2H-pyran-4-yl)amino)-1H-pyrazolo[4,3-c]pyridin-3-yl)-5-(trifluoromethyl)phenol] was less than 100 nM; that for `Cc1cc(N(C)C2CCOCC2)cc2c1c(-c1cc(C(F)(F)F)c(F)c(O)c1F)nn2C` [Compound 9.137, 3-(1,4-Dimethyl-6-(methyl(tetrahydro-2H-pyran-4-yl)amino)-1H-indazol-3-yl)-2,6-difluoro-5-(trifluoromethyl)phenol] was 100 to 1000 nM.
Still for that read-out and setting: the value for `Cn1nc(-c2cc(C(F)(F)F)c(F)c(O)c2F)c2nnc(N3CCOCC34CC4)cc21` [Compound 9.138, 2,6-Difluoro-3-(1-methyl-6-(7-oxa-4-azaspiro[2.5]octan-4-yl)-1H-pyrazolo[4,3-c]pyridazin-3-yl)-5-(trifluoromethyl)phenol] was less than 100 nM; that for `CS(=O)(=O)N1CCN(c2ncc3c(-c4cc(O)c(F)c(C(F)(F)F)c4)n[nH]c3n2)CC1` [Compound 10, 2-Fluoro-5-(6-(4-(methylsulfonyl)piperazin-1-yl)-1H-pyrazolo[3,4-d]pyrimidin-3-yl)-3-(trifluoromethyl)phenol] was 100 to 1000 nM; that for `Oc1cc(-c2n[nH]c3nc(N4CC5(CCOCC5)C4)ncc23)cc(C(F)(F)F)c1F` [Compound 10.01, 5-(6-(7-Oxa-2-azaspiro[3.5]nonan-2-yl)-1H-pyrazolo[3,4-d]pyrimidin-3-yl)-2-fluoro-3-(trifluoromethyl)phenol] was 100 to 1000 nM.
Consider `CC1(C#N)CN(c2ncc3c(-c4cc(O)c(F)c(C(F)(F)F)c4)n[nH]c3n2)C1` [Compound 10.02, 1-(3-(4-Fluoro-3-hydroxy-5-(trifluoromethyl)phenyl)-1H-pyrazolo[3,4-d]pyrimidin-6-yl)-3-methylazetidine-3-carbonitrile], for which the half-inhibitory concentration (IC50) was less than 100 nM.
The same measure, in the same setting: the value for `CS(=O)(=O)N1CCN(c2ccc3c(-c4cc(O)c(F)c(C(F)(F)F)c4)n[nH]c3n2)CC1` [Compound 10.03, 2-Fluoro-5-(6-(4-(methylsulfonyl)piperazin-1-yl)-1H-pyrazolo[3,4-b]pyridin-3-yl)-3-(trifluoromethyl)phenol] was 100 to 1000 nM.
Still for that read-out and setting: the figure for `CS(=O)(=O)N1CCN(c2cnc3c(-c4cc(O)c(F)c(C(F)(F)F)c4)n[nH]c3n2)CC1` [Compound 10.04, 2-Fluoro-5-(6-(4-(methylsulfonyl)piperazin-1-yl)-1H-pyrazolo[3,4-b]pyrazin-3-yl)-3-(trifluoromethyl)phenol] is 100 to 1000 nM.

Still in this assay, the particulars now being: at 10 uM compound; read-out: HSD17β13 % inhibition at 10 uM.
Regarding `Cn1nc(-c2cc(C(F)(F)F)c(F)c(O)c2F)c2ccc(NC3COC3)nc21` [Compound 9.139, 2,6-Difluoro-3-(1-methyl-6-(oxetan-3-ylamino)-1H-pyrazolo[3,4-b]pyridin-3-yl)-5-(trifluoromethyl)phenol], the inhibition (commonly the share of the control response that was lost under treatment) at 10 µM came out at 25%.
For the compound `Cn1nc(-c2cc(C(F)(F)F)c(F)c(O)c2F)c2cnc(N3CCCC34COC4)cc21` [Compound 9.140, 2,6-Difluoro-3-(1-methyl-6-(2-oxa-5-azaspiro[3.4]octan-5-yl)-1H-pyrazolo[4,3-c]pyridin-3-yl)-5-(trifluoromethyl)phenol], the inhibition at 10 µM turned out to be 35%.
On to `CN(c1cc2c(nn1)c(-c1cc(C(F)(F)F)c(F)c(O)c1O)nn2C)C1CCOCC1` [Compound 9.141, 3-Fluoro-6-(1-methyl-6-(methyl(tetrahydro-2H-pyran-4-yl)amino)-1H-pyrazolo[4,3-c]pyridazin-3-yl)-4-(trifluoromethyl)benzene-1,2-diol], for which the inhibition at 10 µM is 20%.
